Here are results for 1 compound from patent US9598414B2, “Substituted benzo[5,6]azepino[3,2,1-hi]pyrido[4,3-b]indoles and substituted benzo[6,7][1,4]oxazepino[2,3,4-hi]pyrido[4,3-b]indoles for treating CNS disorders” (Daya Drug Discoveries, Inc., priority 2013, dated 2017).

As usually defined, the Ki is the dissociation constant of the complex between target and ligand, obtained from inhibition or displacement. Lower therefore signals tighter binding.

For this assay, the target named is Histamine H2 (Homo sapiens, UniProt P25021). Briefly: Receptor binding, H2.
Histamine H2, sequence (P25021 whole entry): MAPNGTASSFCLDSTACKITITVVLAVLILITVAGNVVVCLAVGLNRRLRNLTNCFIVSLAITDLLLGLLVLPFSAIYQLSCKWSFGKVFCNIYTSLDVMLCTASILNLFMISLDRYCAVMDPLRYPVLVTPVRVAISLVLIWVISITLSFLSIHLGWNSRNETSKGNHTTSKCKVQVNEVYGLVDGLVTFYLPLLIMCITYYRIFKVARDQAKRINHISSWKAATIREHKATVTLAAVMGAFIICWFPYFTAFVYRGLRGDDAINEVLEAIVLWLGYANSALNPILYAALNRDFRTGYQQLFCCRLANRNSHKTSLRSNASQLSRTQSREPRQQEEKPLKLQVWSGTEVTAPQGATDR

For the compound `CN1CCc2c(c3cccc4c3n2Cc2ccccc2O4)C1` [Compound 13b], the Ki came to 4.73 µM.
